Among the data in patent US11306101B2 (Celgene Corporation, priority 2019, dated 2022) are DC50 and Y values, retold here.

Structures are written as SMILES.

The target of the assay is T1, CK1α (Homo sapiens, UniProt P48729+Q96SW2).
T1 construct: expressed in transfected cells
Briefly: CK1α ePL degradation assay in MDS-L cells. As to conditions: MDS-L cells expressing ePL-tagged CK1α; for DC50: concentration giving 50% CK1α degradation vs DMSO control; for Y: lowest measured CK1α level normalized to DMSO control. Format: cell-based. The procedure, abridged: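 Degradation efficiency is reported as Y value, the minimum CK1α level (percent of DMSO control) across doses. Readout used InCELL Hunter luminescent detection after MDS-L cell exposure at 37° C for stated times, doses 10 μM down to 0.0005 μM in 3-fold steps.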

T1 sequence (P48729 whole entry): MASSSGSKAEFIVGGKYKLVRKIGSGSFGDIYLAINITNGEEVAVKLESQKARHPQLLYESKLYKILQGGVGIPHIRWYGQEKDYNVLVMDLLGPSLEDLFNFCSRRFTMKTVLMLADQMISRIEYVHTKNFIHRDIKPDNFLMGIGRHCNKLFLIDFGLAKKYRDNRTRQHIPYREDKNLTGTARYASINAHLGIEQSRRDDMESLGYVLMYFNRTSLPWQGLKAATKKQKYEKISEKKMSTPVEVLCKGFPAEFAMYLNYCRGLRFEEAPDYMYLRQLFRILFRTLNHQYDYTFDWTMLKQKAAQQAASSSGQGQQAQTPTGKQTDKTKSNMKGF
T1 sequence (Q96SW2 whole entry): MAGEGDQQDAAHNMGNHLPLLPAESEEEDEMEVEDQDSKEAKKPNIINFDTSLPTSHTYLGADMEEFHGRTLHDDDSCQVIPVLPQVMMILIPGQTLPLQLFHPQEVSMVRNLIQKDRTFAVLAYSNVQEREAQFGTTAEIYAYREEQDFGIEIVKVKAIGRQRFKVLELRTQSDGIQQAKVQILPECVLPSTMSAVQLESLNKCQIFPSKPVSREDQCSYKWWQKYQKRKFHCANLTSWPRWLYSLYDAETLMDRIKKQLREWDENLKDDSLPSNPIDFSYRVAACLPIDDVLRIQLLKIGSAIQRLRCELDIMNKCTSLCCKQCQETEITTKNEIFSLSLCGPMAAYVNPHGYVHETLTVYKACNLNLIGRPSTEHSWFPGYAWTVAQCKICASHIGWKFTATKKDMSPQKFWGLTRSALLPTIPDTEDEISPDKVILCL
T1 sequence (Q16531 whole entry partner): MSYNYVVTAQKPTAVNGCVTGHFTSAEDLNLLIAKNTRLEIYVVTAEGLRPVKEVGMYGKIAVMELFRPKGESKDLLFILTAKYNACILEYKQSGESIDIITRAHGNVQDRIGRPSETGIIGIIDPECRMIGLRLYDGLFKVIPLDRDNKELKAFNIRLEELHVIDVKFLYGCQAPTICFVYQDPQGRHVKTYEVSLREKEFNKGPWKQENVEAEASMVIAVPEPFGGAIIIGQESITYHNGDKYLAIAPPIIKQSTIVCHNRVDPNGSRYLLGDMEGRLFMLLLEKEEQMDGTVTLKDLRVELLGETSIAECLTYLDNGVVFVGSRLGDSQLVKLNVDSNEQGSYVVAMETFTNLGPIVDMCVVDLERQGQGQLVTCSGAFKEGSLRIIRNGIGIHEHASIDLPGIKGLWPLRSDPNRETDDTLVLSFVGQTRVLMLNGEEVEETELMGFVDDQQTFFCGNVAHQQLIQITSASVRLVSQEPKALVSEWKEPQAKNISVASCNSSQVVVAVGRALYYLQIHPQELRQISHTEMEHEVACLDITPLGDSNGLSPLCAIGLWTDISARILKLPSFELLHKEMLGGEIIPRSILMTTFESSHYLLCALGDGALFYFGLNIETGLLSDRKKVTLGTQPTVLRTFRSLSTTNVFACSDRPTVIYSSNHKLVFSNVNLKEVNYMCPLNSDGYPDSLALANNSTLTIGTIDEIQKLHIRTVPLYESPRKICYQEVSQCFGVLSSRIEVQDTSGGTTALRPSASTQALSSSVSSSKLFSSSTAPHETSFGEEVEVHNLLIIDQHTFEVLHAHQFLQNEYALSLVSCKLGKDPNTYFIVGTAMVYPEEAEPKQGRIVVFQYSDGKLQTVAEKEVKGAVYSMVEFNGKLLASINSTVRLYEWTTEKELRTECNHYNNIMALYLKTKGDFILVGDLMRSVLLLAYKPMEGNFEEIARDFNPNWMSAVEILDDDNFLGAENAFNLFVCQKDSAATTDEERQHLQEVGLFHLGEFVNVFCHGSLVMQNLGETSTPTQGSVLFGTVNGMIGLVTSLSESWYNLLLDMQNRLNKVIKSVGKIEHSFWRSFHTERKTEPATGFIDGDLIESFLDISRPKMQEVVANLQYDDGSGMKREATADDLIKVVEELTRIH

For the molecule `O=C1CCC(N2Cc3cc(C(=O)N[C@H](c4ccc(Oc5ccccc5)cc4)C(F)(F)F)ccc3C2=O)C(=O)N1` (stereo partly drawn) [Example 147, 2-(2,6-dioxopiperidin-3-yl)-1-oxo-N-((R)-2,2,2-trifluoro-1-(4-phenoxyphenyl)ethyl)isoindoline-5-carboxamide], the DC50 lay in the range of 100 to 500 nM and the Y result is recorded as “** (a Y value (shown as**) of 20%<Y≤35%)”.
In the same order, the values of `O=C1CCC(N2Cc3cc(C(=O)N[C@H](c4ccc(OC5CC5)cc4)C(F)(F)F)ccc3C2=O)C(=O)N1` (stereo partly drawn) [Example 148, N-((R)-1-(4-cyclopropoxyphenyl)-2,2,2-trifluoroethyl)-2-(2,6-dioxopiperidin-3-yl)-1-oxoisoindoline-5-carboxamide] are less than 100 nM and “* (a Y value (shown as *) of 0<Y≤20%)”.
Take `O=C1CCC(N2Cc3cc(C(=O)N[C@@H](CC(F)(F)F)c4ccc(Cl)cc4)ccc3C2=O)C(=O)N1` (stereo partly drawn) [Example 149, N-((S)-1-(4-chlorophenyl)-3,3,3-trifluoropropyl)-2-(2,6-dioxopiperidin-3-yl)-1-oxoisoindoline-5-carboxamide]: the DC50 is 500 to 1000 nM and the Y entry was “** (a Y value (shown as**) of 20%<Y≤35%)”.
In the same order, the values of `CN(C)Cc1cccc([C@@H](NC(=O)c2ccc3c(c2)CN(C2CCC(=O)NC2=O)C3=O)C(F)(F)F)c1` (stereo partly drawn) [Example 150, N-((R)-1-(3-((dimethylamino)methyl)phenyl)-2,2,2-trifluoroethyl)-2-(2,6-dioxopiperidin-3-yl)-1-oxoisoindoline-5-carboxamide] are 100 to 500 nM and “** (a Y value (shown as**) of 20%<Y≤35%)”.
With `O=C1CCC(N2Cc3cc(C(=O)N[C@H](c4c(F)cccc4Cl)C(F)(F)F)ccc3C2=O)C(=O)N1` (stereo partly drawn) [Example 151, N-((R)-1-(2-chloro-6-fluorophenyl)-2,2,2-trifluoroethyl)-2-(2,6-dioxopiperidin-3-yl)-1-oxoisoindoline-5-carboxamide], the DC50 is less than 100 nM and the Y result is “* (a Y value (shown as *) of 0<Y≤20%)”.
The matching figures for `O=C1CCC(N2Cc3cc(C(=O)N[C@H](c4cccc(F)c4Cl)C(F)(F)F)ccc3C2=O)C(=O)N1` (stereo partly drawn) [Example 152, N-((R)-1-(2-chloro-3-fluorophenyl)-2,2,2-trifluoroethyl)-2-(2,6-dioxopiperidin-3-yl)-1-oxoisoindoline-5-carboxamide]: less than 100 nM and “* (a Y value (shown as *) of 0<Y≤20%)”.
In the same order, the values of `O=C1CCC(N2Cc3c(ccc(C(=O)N[C@H](c4ccc(F)cc4)C(F)(F)F)c3Cl)C2=O)C(=O)N1` (stereo partly drawn) [Example 153, 4-chloro-2-(2,6-dioxopiperidin-3-yl)-1-oxo-N-((R)-2,2,2-trifluoro-1-(4-fluorophenyl)ethyl)isoindoline-5-carboxamide] are 100 to 500 nM and “** (a Y value (shown as**) of 20%<Y≤35%)”.
The matching figures for `CC(C)[C@H](NC(=O)c1ccc2c(c1)CN(C1CCC(=O)NC1=O)C2=O)c1ccccc1` (stereo partly drawn) [Example 154, 2-(2,6-dioxopiperidin-3-yl)-N-((S)-2-methyl-1-phenylpropyl)-1-oxoisoindoline-5-carboxamide]: less than 100 nM and “* (a Y value (shown as *) of 0<Y≤20%)”.
As for `O=C1CCC(N2Cc3cc(C(=O)N[C@H](c4ccccc4CN4CCOCC4)C(F)(F)F)ccc3C2=O)C(=O)N1` (stereo partly drawn) [Example 155, 2-(2,6-dioxopiperidin-3-yl)-1-oxo-N-((R)-2,2,2-trifluoro-1-(2-(morpholinomethyl)phenyl)ethyl)isoindoline-5-carboxamide], the 50% degradation concentration (DC50) is less than 100 nM and the Y result is listed as “* (a Y value (shown as *) of 0<Y≤20%)”.
The matching figures for `C[C@]1(O)CC[C@H]([C@@H](NC(=O)c2ccc3c(c2)CN(C2CCC(=O)NC2=O)C3=O)C(F)(F)F)CC1` (stereo partly drawn) [Example 156, 2-(2,6-dioxopiperidin-3-yl)-1-oxo-N-((R)-2,2,2-trifluoro-1-((1r,4R)-4-hydroxy-4-methylcyclohexyl)ethyl)isoindoline-5-carboxamide]: 100 to 500 nM and “* (a Y value (shown as *) of 0<Y≤20%)”.
In the same order, the values of `O=C1CCC(N2Cc3c(ccc(C(=O)N[C@H](c4ccccc4OC4CC4)C(F)(F)F)c3F)C2=O)C(=O)N1` (stereo partly drawn) [Example 157, N-((R)-1-(2-cyclopropoxyphenyl)-2,2,2-trifluoroethyl)-2-(2,6-dioxopiperidin-3-yl)-4-fluoro-1-oxoisoindoline-5-carboxamide] are less than 100 nM and “** (a Y value (shown as**) of 20%<Y≤35%)”.
As to `O=C1CCC(N2Cc3cc(C(=O)N[C@H](c4cccc(Oc5ccccc5)c4)C(F)(F)F)ccc3C2=O)C(=O)N1` (stereo partly drawn) [Example 158, 2-(2,6-dioxopiperidin-3-yl)-1-oxo-N-((R)-2,2,2-trifluoro-1-(3-phenoxyphenyl)ethyl)isoindoline-5-carboxamide], the DC50 was less than 100 nM and the Y entry is reported as “* (a Y value (shown as *) of 0<Y≤20%)”.
In the case of `O=C1CCC(N2Cc3cc(C(=O)N[C@H](c4ccccc4Oc4ccccc4)C(F)(F)F)ccc3C2=O)C(=O)N1` (stereo partly drawn) [Example 159, 2-(2,6-dioxopiperidin-3-yl)-1-oxo-N-((R)-2,2,2-trifluoro-1-(2-phenoxyphenyl)ethyl)isoindoline-5-carboxamide], the DC50 was less than 100 nM and the Y entry is recorded as “* (a Y value (shown as *) of 0<Y≤20%)”.
With `O=C1CCC(N2Cc3cc(C(=O)N[C@H](c4cc(F)ccc4Cl)C(F)(F)F)ccc3C2=O)C(=O)N1` (stereo partly drawn) [Example 160, N-((R)-1-(2-chloro-5-fluorophenyl)-2,2,2-trifluoroethyl)-2-(2,6-dioxopiperidin-3-yl)-1-oxoisoindoline-5-carboxamide], the DC50 is less than 100 nM and the Y result is recorded as “* (a Y value (shown as *) of 0<Y≤20%)”.
For the molecule `O=C1CCC(N2Cc3cc(C(=O)N[C@H](c4ccccc4OC4CC4)C(F)(F)F)ccc3C2=O)C(=O)N1` (stereo partly drawn) [Example 161, N-((R)-1-(2-cyclopropoxyphenyl)-2,2,2-trifluoroethyl)-2-(2,6-dioxopiperidin-3-yl)-1-oxoisoindoline-5-carboxamide], the DC50 is less than 100 nM and the Y result was “* (a Y value (shown as *) of 0<Y≤20%)”.
In the same order, the values of `O=C1CCC(N2Cc3cc(C(=O)N[C@@H](CC(F)(F)F)c4cccc(F)c4)ccc3C2=O)C(=O)N1` (stereo partly drawn) [Example 162, 2-(2,6-dioxopiperidin-3-yl)-1-oxo-N-((S)-3,3,3-trifluoro-1-(3-fluorophenyl)propyl)isoindoline-5-carboxamide] are 100 to 500 nM and “** (a Y value (shown as**) of 20%<Y≤35%)”.
The matching figures for `O=C1CCC(N2Cc3cc(C(=O)N[C@H](c4ccc(Cl)cc4Cl)C(F)(F)F)ccc3C2=O)C(=O)N1` (stereo partly drawn) [Example 163, N-((R)-1-(2,4-dichlorophenyl)-2,2,2-trifluoroethyl)-2-(2,6-dioxopiperidin-3-yl)-1-oxoisoindoline-5-carboxamide]: less than 100 nM and “* (a Y value (shown as *) of 0<Y≤20%)”.
The matching figures for `O=C1CCC(N2Cc3c(ccc(C(=O)N[C@H](c4ccc(Cl)cc4Cl)C(F)(F)F)c3F)C2=O)C(=O)N1` (stereo partly drawn) [Example 164, N-((R)-1-(2,4-dichlorophenyl)-2,2,2-trifluoroethyl)-2-(2,6-dioxopiperidin-3-yl)-4-fluoro-1-oxoisoindoline-5-carboxamide]: 100 to 500 nM and “** (a Y value (shown as**) of 20%<Y≤35%)”.
As to `CC(C)(O)C12CC([C@@H](NC(=O)c3ccc4c(c3)CN(C3CCC(=O)NC3=O)C4=O)C(F)(F)F)(C1)C2` (stereo partly drawn) [Example 165, 2-(2,6-dioxopiperidin-3-yl)-1-oxo-N-((R)-2,2,2-trifluoro-1-(3-(2-hydroxypropan-2-yl)bicyclo[1.1.1]pentan-1-yl)ethyl)isoindoline-5-carboxamide], the half-maximal degradation concentration (DC50) was less than 100 nM and the Y entry is “* (a Y value (shown as *) of 0<Y≤20%)”.
Regarding `O=C1CCC(N2Cc3cc(C(=O)N[C@H](C4CCC5(CC4)CC5)C(F)(F)F)ccc3C2=O)C(=O)N1` (stereo partly drawn) [Example 166, 2-(2,6-dioxopiperidin-3-yl)-1-oxo-N-((1R)-2,2,2-trifluoro-1-(spiro[2.5]octan-6-yl)ethyl)isoindoline-5-carboxamide], the half-maximal degradation concentration (DC50) was less than 100 nM and the Y entry was “* (a Y value (shown as *) of 0<Y≤20%)”.
In the same order, the values of `CC(C)[C@H](NC(=O)c1ccc2c(c1)CN(C1CCC(=O)NC1=O)C2=O)c1ccccc1F` (stereo partly drawn) [Example 167, 2-(2,6-dioxopiperidin-3-yl)-N-((S)-1-(2-fluorophenyl)-2-methylpropyl)-1-oxoisoindoline-5-carboxamide] are less than 100 nM and “* (a Y value (shown as *) of 0<Y≤20%)”.
The matching figures for `C[C@]1(O)CC[C@@H]([C@@H](NC(=O)c2ccc3c(c2)CN(C2CCC(=O)NC2=O)C3=O)C(F)(F)F)CC1` (stereo partly drawn) [Example 168, 2-(2,6-dioxopiperidin-3-yl)-1-oxo-N-((R)-2,2,2-trifluoro-1-((1s,4S)-4-hydroxy-4-methylcyclohexyl)ethyl)isoindoline-5-carboxamide]: less than 100 nM and “* (a Y value (shown as *) of 0<Y≤20%)”.
The matching figures for `CC(C)[C@H](NC(=O)c1ccc2c(c1)CN(C1CCC(=O)NC1=O)C2=O)c1ccccc1Cl` (stereo partly drawn) [Example 169, N-((S)-1-(2-chlorophenyl)-2-methylpropyl)-2-(2,6-dioxopiperidin-3-yl)-1-oxoisoindoline-5-carboxamide]: less than 100 nM and “* (a Y value (shown as *) of 0<Y≤20%)”.
Take `CC(C)[C@H](NC(=O)c1ccc2c(c1)CN(C1CCC(=O)NC1=O)C2=O)c1ccc(F)cc1` (stereo partly drawn) [Example 170, 2-(2,6-dioxopiperidin-3-yl)-N-((S)-1-(4-fluorophenyl)-2-methylpropyl)-1-oxoisoindoline-5-carboxamide]: the DC50 was less than 100 nM and the Y entry is recorded as “* (a Y value (shown as *) of 0<Y≤20%)”.
